Results reported in patent US11291719B2, “Methods and compositions for modulating Akt3” (Augusta University Research Institute, Inc., priority 2016, dated 2022).

What was measured:
human iTregs = test: Induction and viability of human iTregs; type: cell-based
Text: FIG. 11A is a bar graph showing the percent of live human iTregs in cells treated with various concentrations of mJJ64A. The X-axis represents treatment group and the Y-axis represents percent of live cells. FIG. 11B is a bar graph showing the percent of FoxP3^+CD4^+ cells in human iTregs treated with various concentrations of mJJ64A. The X-axis represents treatment group and the Y-axis represents percent of FoxP3^+CD4^+ cells. FIG. 11C is a bar graph showing the percent of TGFβ^+ expressing cells in human iTregs treated with various concentrations of mJJ64A. The X-axis represents treatment group and the Y-axis represents percent of TGFβ^+ expressing cells.

iTregs = test: Proliferation of activated iTregs; type: cell-based; conditions: TGF-β induced
Text: FIGS. 13A-13H show histograms representing proliferation of activated iTregs induced with TGF-β and treated with various concentrations of mJJ64A. FIG. 13I is a bar graph showing percent proliferation of iTregs treated with various concentrations of mJJ64A. The X-axis represents concentration of mJJ64A. The Y-axis represents percent proliferation. FIG. 13J is a bar graph showing the percent of live cells in iTregs treated with various concentrations of mJJ64A. The X axis represents treatment and the Y axis represents percentage of live cells.

nTregs = test: Proliferation and viability of activated nTregs; type: cell-based
Text: FIGS. 14A-14H is a set of histograms showing proliferation of activated nTregs treated with various concentrations of mJJ64A. FIG. […] is a bar graph showing percent proliferation of nTregs treated with various concentrations of mJJ64A. The X-axis represents treatment and the Y-axis represents percent proliferation. FIG. 13J is a bar graph showing the percent of live cells in nTregs treated with various concentrations of mJJ64A. The X-axis represents treatment and the Y-axis represents percentage of live cells.
FIGS. 16A-16L is a set of histograms showing the suppressive function of untreated and mJJ64A treated nTregs. The ratio of nTreg to Tconv cells is 0:1, 0.5:1, 1:1, 2:1, and 3:1.

[1] = system: non-Treg CD4 and CD8 T cells; test: Proliferation of non-Treg CD4 and CD8 T cells; type: cell-based; conditions: data not shown
mouse iTreg cells = test: Suppressive function of mouse iTregs in vitro; type: cell-based; conditions: iTreg to Tconv ratios 0:1 to 2:1
Text: FIGS. 15A-15J is a set of histograms showing the suppressive function of mouse iTregs in untreated and mJJ64A treated iTregs. The ratio of iTreg to Tconv cells was 0:1, 0.5:1, 1:1, and 2:1.

IL-10 = IL-10 production by nTregs; type: cell-based; conditions: percent IL-10+ FoxP3+ cells
Text: FIG. 17 is a bar graph representing the percent of IL-10^+ FoxP3^+ cells in nTregs treated with various concentrations of mJJ64A.

TC-1 tumor = TC-1 tumor growth under mJJ64A; type: in vivo, mouse; conditions: compared to untreated controls
Text: FIG. 18A is an illustration showing the experimental method and treatment schematic for TC-1 tumor experiments. FIG. 18B is a line graph showing tumor volume (cm^3) over time (days) for untreated (▴) and mJJ64A treated (♦) TC1 tumor bearing mice.

[2] = system: Tregs, CD8+ and FoxP3NEG CD4 T cells; test: T cell populations in tumors and spleens of TC-1 mice; type: in vivo, mouse
Text: FIG. 19A is a bar graph representing the number of CD8^+ cells per 10^6 live cells in tumors from untreated and mJJ64A treated mice. FIG. 19B is a bar graph representing the number of CD4^+ cells per 10^6 live cells in tumors from untreated and mJJ64A treated mice. FIG. 19C is a bar graph representing the number of FoxP3^+ cells per 10^6 CD4^+ cells in tumors from untreated and mJJ64A treated mice. FIG. 19D is a bar graph representing the number of CD8^+, FoxP3^NEG CD4^+, and Treg cells per 10^6 live cells in the spleen of untreated or mJJ64A treated tumor-bearing mice. FIG. 19E is a bar graph representing the number of CD8^+, FoxP3^NEG CD4^+, and Treg cells per 10^6 live cells in the spleen of untreated or mJJ64A treated tumor-free mice.

Tregs [3] = test: Percent of Tregs in Rag-/- mice; type: in vivo, mouse; conditions: compared to untreated
Text: FIG. 22A is a bar graph showing the number of CD4^+ T cells per 10^6 live cells in the spleen of WT, UT, iTreg, mJJ64A, and mJJ64A treated iTreg treated Rag^−/− mice. The X-axis represents treatment group and the Y-axis represents number of CD4^+ cells per 10^6 live cells. FIG. 22B is a bar graph showing the percent of FoxP3^+ cells per CD4^+ T cells in the spleen of WT, UT, iTreg, mJJ64A, and mJJ64A treated iTreg treated Rag^−/− mice. The X-axis represents treatment group and the Y-axis represents number of FoxP3^+ cells per CD4^+ cells. FIG. 22C is a bar graph showing the percent of FoxP3^− cells per CD4^+ T cells in the spleen of WT, UT, iTreg, mJJ64A, and mJJ64A treated iTreg treated Rag^−/− mice. The X-axis represents treatment group and the Y-axis represents number of FoxP3^− cells per CD4^+ cells. FIG. 22D is a bar graph showing the number of CD4^+ T cells per 10^6 live cells in the lymph node of WT, UT, iTreg, mJJ64A, and mJJ64A treated iTreg treated Rag^−/− mice. The X-axis represents treatment group and the Y-axis represents number of CD4^+ cells per 10^6 live cells. FIG. 22E is a bar graph showing the percent of FoxP3^+ cells per CD4^+ T cells in the lymph node of WT, UT, iTreg, mJJ64A, and mJJ64A treated iTreg treated Rag^−/− mice. The X-axis represents treatment group and the Y-axis represents number of FoxP3^+ cells per CD4^+ cells. […]

Tregs [4] = test: Percent of Tregs in EAE mice; type: in vivo, mouse; conditions: compared to untreated
Text: FIGS. 25A-251 are bar graphs showing the percent of FoxP3^+ cells per CD4^+ T cells, FoxP3^− cells per CD4^+ T cells, and ROR^+ cells per CD4^+ T cells in the spleen (FIG. 25A-25C), blood (FIG. 25D-25F), and brain (FIG. 25G-251) of UT, iTreg, mJJ64A-3, mJJ64A-6 and mJJ64A-10 treated EAE mice. The X-axis represents treatment group and the Y-axis represents number of FoxP3^+ cells, FoxP3^−, or ROR^+ cells per CD4^+ cells.

For `N#Cc1ccc2nccc(Nc3ccc(C(=O)Nc4ccc(Nc5ccncc5)cc4)cc3)c2c1` [Compound 2], the “induction of human iTregs” value (human iTregs; percent FoxP3+CD4+ and TGFβ+ cells) was “induced”, the “cell viability of human iTregs” value (human iTregs; percent of live cells) was “did not affect” and the “proliferation of iTregs” value (iTregs) was “increased”. For the same molecule, the “viability of nTregs” value (nTregs) was “without affecting”, the “proliferation of nTregs” value (nTregs; activated nTregs) was “increased” and the “proliferation of non-Treg CD4 and CD8 T cells” value [1] was “not”. The “suppressive function of mouse iTreg cells in vitro” value (mouse iTreg cells) was “increased”, the “IL-10 production by nTregs” value (IL-10) was “increased” and the TC-1 tumor growth (TC-1 tumor) was “significantly increased”. For the same molecule, the “number of Tregs in the tumors and spleens” value ([2]; compared to untreated controls) was “increased”, the “tumor-infiltration of CD8+ and FoxP3NEG CD4 T cells” value ([2]; mouse, in vivo) was “not affected” and the “percent of Tregs in the spleen and mesenteric lymph nodes” value (Tregs [3]) was “increased”. For the same molecule, the “percent of Tregs in the spleen, blood, and brain” value (Tregs [4]) was “increased”.
